Data: ChEMBL document CHEMBL1201862, “PubChem BioAssay data set” (2004)
Activity calls are given as the source filed them.

Columns and labels:
fMet-Leu-Phe receptor = fMet-Leu-Phe receptor (Homo sapiens, UniProt P21462); test: formyl peptide receptor binders – dose response (AID 519); type: functional
[1] = target: T1, Oxysterols receptor LXR-beta (Homo sapiens, UniProt P55055); type: functional, cell-based;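 further: Cell-based luminescence dose-response assay of agonist activity at LXR, run as a confirmatory counterscreen to a daf-12 agonist screen; HEK293 cells with Gal4-LXR fusion and GAL4-driven luciferase reporter; agonist potency from rising luciferase signal of a Gal4-LXR reporter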
T1 sequence (P55055 whole entry): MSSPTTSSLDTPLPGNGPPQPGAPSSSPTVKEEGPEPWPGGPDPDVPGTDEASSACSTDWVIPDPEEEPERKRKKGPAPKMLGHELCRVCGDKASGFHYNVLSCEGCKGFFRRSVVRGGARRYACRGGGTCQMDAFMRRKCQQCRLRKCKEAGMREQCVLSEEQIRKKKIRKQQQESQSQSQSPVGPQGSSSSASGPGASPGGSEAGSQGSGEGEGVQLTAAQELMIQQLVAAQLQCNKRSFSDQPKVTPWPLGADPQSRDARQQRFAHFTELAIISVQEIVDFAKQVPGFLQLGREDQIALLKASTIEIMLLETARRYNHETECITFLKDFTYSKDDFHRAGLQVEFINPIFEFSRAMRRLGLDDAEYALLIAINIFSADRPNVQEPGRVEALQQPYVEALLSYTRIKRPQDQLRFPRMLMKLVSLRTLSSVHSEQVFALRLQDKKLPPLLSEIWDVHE

[2] = toxicity toward HepG2 liver cells – cell-based, plate reader, cherry-pick, antagonist series, cytotoxicity control, dose response (AID 743416); type: functional
[3] = A549 cell cytotoxicity, dose response, cytotoxicity control, plate reader, cherry-pick, antagonist series (AID 743412); type: functional, cell-based
cells [4] = test: cells
[5] = blockade of melanocortin 4 receptor signaling – cell-based, plate reader, cherry pick, counter-screen for LGR2 antagonist project, dose response (AID 743444); type: functional;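 further: transfected HEK 293 cells stimulated with alpha-MSH peptide; potency of inhibitors of the alpha-MSH evoked signal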
[6] = blockers of bursicon-stimulated LGR2 cAMP reporter – cell-based, HEK293, CRE-luciferase reporter, cherry pick, set 2, dose response (AID 743343); type: functional;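 further: transfected cells were stimulated with diluted bursicon conditioned medium after compound addition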
[7] = viability loss in HEK293 cells – cell-based, plate reader, cherry-picked samples, cytotoxicity control, dose response (AID 743446); type: functional
cells [8] = test: cells; remark: listed apart in the source
Major prion protein = Major prion protein (Homo sapiens, UniProt P04156); type: functional, cell-based
Albumin = Albumin (Bos taurus, UniProt P02769); test: Counterscreen for inhibitors of T-cell receptor (TCR)-CD3 interaction: Fluorescence-based biochemical high throughput dose response assay to identify inhibitors of T-cell receptor (TCR)-CD3 interaction using a TAMRA-labeled BSA probe.; type: functional
[9] = system: Streptococcus sp. 'group A'; test: Streptococcus pyogenes SK(-)GAS viability under kanamycin – luminescence, BacTiterGlo, confirmation, counter-screen for streptokinase expression inhibitor project, dose response (AID 1900); type: functional, organism-based
Streptococcus = test: GAS UMAA2166 growth inhibition – luminescence, BacTiterGlo, counter-screen for streptokinase expression inhibitor project, dose response (AID 1915); type: functional, organism-based;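 further: potency for reduction of bacterial viability or growth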
[10] = viability loss of HPDE-C7K cells – cell-based, fluorescence, HTS, primary screen (AID 431); type: functional; settings: Homo sapiens
Aminopeptidase N = target: T2, Aminopeptidase N (Plasmodium falciparum FcB1/Columbia, UniProt O96935); test: malaria alanyl aminopeptidase activity blockers – biochemical, fluorogenic H-Leu-NHMec substrate, 1536-well (AID 1445); set-up: species or system Plasmodium falciparum 3D7, 3D7
T2 sequence (O96935 whole entry): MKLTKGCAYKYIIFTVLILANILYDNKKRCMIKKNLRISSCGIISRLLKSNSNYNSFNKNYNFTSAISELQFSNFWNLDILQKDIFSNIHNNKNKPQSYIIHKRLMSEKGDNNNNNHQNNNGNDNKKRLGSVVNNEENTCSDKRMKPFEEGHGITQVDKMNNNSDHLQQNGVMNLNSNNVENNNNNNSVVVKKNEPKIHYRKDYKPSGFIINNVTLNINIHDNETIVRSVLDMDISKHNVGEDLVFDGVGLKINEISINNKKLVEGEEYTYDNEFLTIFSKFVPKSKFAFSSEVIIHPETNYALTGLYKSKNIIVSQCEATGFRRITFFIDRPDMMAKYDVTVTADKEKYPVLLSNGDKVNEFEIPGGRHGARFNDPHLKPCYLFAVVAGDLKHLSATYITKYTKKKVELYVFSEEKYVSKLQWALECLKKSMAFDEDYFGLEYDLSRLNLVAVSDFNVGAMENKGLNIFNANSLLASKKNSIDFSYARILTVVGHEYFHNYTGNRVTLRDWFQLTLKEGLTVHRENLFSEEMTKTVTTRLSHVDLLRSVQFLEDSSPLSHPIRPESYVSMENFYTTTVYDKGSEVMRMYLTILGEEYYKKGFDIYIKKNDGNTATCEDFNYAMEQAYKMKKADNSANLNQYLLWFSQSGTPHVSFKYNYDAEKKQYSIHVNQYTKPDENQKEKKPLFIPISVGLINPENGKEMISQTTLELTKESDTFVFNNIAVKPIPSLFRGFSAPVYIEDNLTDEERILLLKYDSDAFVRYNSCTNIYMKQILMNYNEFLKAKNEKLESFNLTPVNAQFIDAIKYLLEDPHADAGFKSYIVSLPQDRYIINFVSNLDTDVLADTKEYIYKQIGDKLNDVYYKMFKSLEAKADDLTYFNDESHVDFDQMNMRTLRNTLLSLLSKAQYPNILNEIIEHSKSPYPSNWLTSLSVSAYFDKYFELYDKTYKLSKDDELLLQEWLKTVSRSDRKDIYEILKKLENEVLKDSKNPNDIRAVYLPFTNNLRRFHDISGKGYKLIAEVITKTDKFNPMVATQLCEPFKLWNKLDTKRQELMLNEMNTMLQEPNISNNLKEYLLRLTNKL

Streptokinase A = target: T3, Streptokinase A (Streptococcus pyogenes serotype M1, UniProt P10520); test: viability-normalized secreted streptokinase activity reduction – plasminogen activation absorbance, OD405, dose response (AID 1914); type: functional, Streptococcus pyogenes M1 GAS;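 further: secreted streptokinase activity via plasminogen activation per viability signal from cell pellet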
T3 sequence (P10520 whole entry): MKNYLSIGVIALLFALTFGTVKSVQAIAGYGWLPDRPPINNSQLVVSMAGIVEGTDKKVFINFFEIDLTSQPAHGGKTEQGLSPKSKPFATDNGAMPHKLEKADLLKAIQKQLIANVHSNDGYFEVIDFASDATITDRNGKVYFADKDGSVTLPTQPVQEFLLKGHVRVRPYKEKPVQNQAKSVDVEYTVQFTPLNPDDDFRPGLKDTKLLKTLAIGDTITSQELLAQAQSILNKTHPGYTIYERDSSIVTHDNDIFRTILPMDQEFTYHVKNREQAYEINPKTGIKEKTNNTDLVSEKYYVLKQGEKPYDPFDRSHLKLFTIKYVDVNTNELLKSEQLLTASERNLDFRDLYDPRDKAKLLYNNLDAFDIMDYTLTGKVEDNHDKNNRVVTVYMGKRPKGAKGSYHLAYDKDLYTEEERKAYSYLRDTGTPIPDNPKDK

[11] = HPDE-C7 pancreatic duct cell viability loss – fluorescence, HTS (AID 430); type: functional, cell-based; settings: Homo sapiens
cells [12] = type: functional, cell-based
Cytochrome P450 2C19 = Cytochrome P450 2C19 (Homo sapiens, UniProt P33261); test: Cytochrome panel assay with activity outcomes. Panel member name: p450-cyp2c19 Compounds with AC50 equal or less than 10 uM are considered active; type: functional; settings: read-out: AC50
[13] = target: T4, Trace amine-associated receptor 1 (Homo sapiens, UniProt Q96RJ0); test: Fluorescence-based cell-based high throughput dose response assay to identify agonists of the human trace amine associated receptor 1 (TAAR1).; type: functional
T4 sequence (Q96RJ0 whole entry): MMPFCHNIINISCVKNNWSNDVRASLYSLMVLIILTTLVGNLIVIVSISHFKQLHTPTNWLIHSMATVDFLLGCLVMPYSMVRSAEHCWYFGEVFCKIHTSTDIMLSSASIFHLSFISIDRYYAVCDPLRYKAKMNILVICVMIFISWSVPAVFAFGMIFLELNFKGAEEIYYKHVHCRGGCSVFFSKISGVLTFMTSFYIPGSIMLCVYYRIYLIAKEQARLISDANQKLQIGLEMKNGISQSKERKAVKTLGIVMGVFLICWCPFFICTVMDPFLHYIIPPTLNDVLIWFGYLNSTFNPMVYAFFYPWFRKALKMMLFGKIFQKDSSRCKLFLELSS

Cytochrome P450 2C9 = Cytochrome P450 2C9 (Homo sapiens, UniProt P11712)
cells [14] = type: functional, cell-based; remark: listed apart in the source
[15] = target: T4, Trace amine-associated receptor 1; test: Counterscreen for agonists of the human trace amine associated receptor 1 (hTAAR1): Fluorescence-based cell-based high throughput dose response assay to identify hTAAR1 agonist that also desensitize TAAR1 receptor response.; type: functional
[16] = viability loss in MITF-independent A375 cells – cell-based, CellTiter-Glo luminescence, dry powder, set 2, counter-screen for MITF inhibitor project, dose response (AID 624489); type: functional; settings: A-375;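 further: actives are compounds lowering A375 viability meaning general cytotoxicity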
[17] = cytotoxicity in MITF-independent A375 cells – cell-based, CellTiter-Glo luminescence, dry powder, set 4, counter-screen for MITF inhibitor project, dose response (AID 624364); type: functional; settings: A-375;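 further: A375 melanoma cells are MITF independent so this is a counter screen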
[18] = target: Induced myeloid leukemia cell differentiation protein Mcl-1 (Homo sapiens, UniProt Q07820); type: functional
[19] = Trypanosoma cruzi growth suppression in host cells – NIH3T3 host cells, beta-gal luminescence, confirmation (AID 2044); type: functional, cell-based;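 further: intracellular parasites grown in NIH/3T3 mouse fibroblasts as host cells; luminescent beta-galactosidase reporter signal from transgenic T. cruzi replicating inside host cells; inhibitors lower the luminescence signal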
[20] = NIH3T3 cell viability loss – ATP luminescence, mouse fibroblasts, counter-screen, dose response (AID 2010); type: functional, cell-based;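 further: cells exposed to compound for about 90 hours before reading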

SMILES: CCCC(=O)Nc1c2c(nn1-c1ccc(OC)cc1)C[S+]([O-])C2 (centres undefined)
- Ki (fMet-Leu-Phe receptor): > 66.7 µM (inactive)

SMILES: COc1ccc(C(=O)Nc2nnc(-c3cccs3)s2)cc1
- EC50 [1]: > 67.5 µM (inactive)
- AC50 [2]: 45.2 µM (active)
- AC50 [3]: 44.5 µM (active)
- EC50 (cells [4]): > 67.5 µM (inactive)
- AC50 [5]: 3.17 µM (active)
- AC50 [6]: 5.12 µM (active)
- AC50 [7]: > 52 µM (inactive)

SMILES: Cc1cc(NC(=O)CSc2nc(CCC3CCCC3)nc3ccccc23)no1
- IC50 (cells [8]): > 138 µM (inactive)
- IC50 (Major prion protein): 9.42 µM (active)

SMILES: O=C(Cc1ccccc1)NNC(=S)NC(=O)c1cccnc1
- IC50 (Albumin): > 94.1 µM (inactive)

SMILES: CCCCCNC(=O)c1ccc2c(=O)[nH]c3c(C(=O)NCC4CCCO4)sc(=S)n3c2c1 (centres undefined)
- EC50 [9]: 0.944 µM (active)
- EC50 (Streptococcus): > 150 µM (not active)
- EC50 [10]: > 20 µM (not active)
- IC50 (Aminopeptidase N): 37 µM (active)
- EC50 (Streptokinase A): 21.1 µM (inconclusive)
- EC50 [11]: 17.6 µM (active)
- Ki (fMet-Leu-Phe receptor): 40.7 µM (inactive)

SMILES: CCc1nc(SCC(=O)NNC(=O)C(C)C)c2ccccc2n1
- IC50 (cells [8]): > 138 µM (inactive)
- IC50 (Major prion protein): 1.93 µM (active)

SMILES: CC1CN(C(NC(=O)C(C)(C)C)C(Cl)(Cl)Cl)CC(C)O1 (centres undefined)
- IC50 (cells [12]): > 29.9 µM (inactive)
- AC50 (Cytochrome P450 2C19): 8.91 µM (inconclusive)
- EC50 [13]: 3.82 µM (active)
- AC50 (Cytochrome P450 2C9): 14.1 µM (inconclusive)
- EC50 (cells [14]): > 29.9 µM (inactive)
- IC50 [15]: 21.6 µM (inactive)

SMILES: O=C(NC1=C(c2ccccc2)C(=O)c2ccccc2C1=O)c1ccco1
- AC50 [16]: 14.2 µM (active)
- AC50 [17]: 21.3 µM (active)

SMILES: O=C(NC1=C(c2ccccc2)C(=O)c2ccccc2C1=O)c1ccc(Br)cc1
- AC50 [16]: 22.9 µM (active)
- AC50 [17]: 45.8 µM (active)

SMILES: CCc1nnc(S)n1/N=C/c1cc(OC)cc([N+](=O)[O-])c1O
- IC50 [18]: 12.4 µM (active)
- IC50 (Albumin): > 94.1 µM (inactive)
- EC50 [19]: 0.815 µM (active)
- EC50 [20]: > 60 µM (not active)
